# Test results published in patent publication US9237750B2, “Ornidazole and related compounds for use as herbicides” (RAMOT AT TEL-AVIV UNIVERSITY LTD., priority 2012, dated 2016).
# Legend:
# [1] = test system: Sedoheptulose bisphosphatase; experiment: Calvin cycle enzyme activity; assay type: biochemical, Anabaena; conditions: 1 mM Ornidazole
# Method: (§1) Rubisco was assayed as described by Marcus et al. (2005, ibid) and Snir et al. (2006, ibid). Phospho-ribulose kinase was assayed by conversion of phospho-ribulose to RuBP, which was determined by Rubisco dependent carboxylation with radiolabeled ^14CO2. Plant or cyanobacterial extract was incubated with medium containing 50 mM Hepes pH 8, 10 mM MgCl2, 20 mM NaH^14CO3, 1 mM DTT, 0.5 mM ribose-5-phosphate, ribose-5-phosphate isomerase and activated Rubisco. Phosphoglycerate kinase, GAPDH, FBPase and SBPase were determined as described by Leegood (Leegood R C., 1990. In: Methods in plant biochemistry, Vol 3, pp 15-37, Academic Press).
# (§2) However, analysis of Ornidazole effect on various enzymes of the Calvin cycle in Anabaena including ribulose-bisphosphate carboxylase/oxygenase (Rubisco), phosphoglycerate kinase, glyceraldehyde-3-phosphate dehydrogenase (GAPDH), triose-phosphate isomerase, aldolase, fructose and sedoheptulose bisphosphatase and phosphoribulose kinase, has shown inhibition of GAPDH and triose-phosphate isomerase (Table 2).
# Rubisco = molecular target: T1, Rubisco (Nostoc sp., UniProt P00879); experiment: Calvin cycle enzyme activity; assay type: biochemical, Anabaena; conditions: 1 mM Ornidazole
# T1 construct: endogenous in cells; host or cells: Anabaena PCC7120 extract
# Method: as §1, §2
# Fructose bisphosphatase = experiment: Calvin cycle enzyme activity; assay type: biochemical, Anabaena; conditions: 1 mM Ornidazole
# Method: as §1, §2
# Phosphoribulose kinase = experiment: Calvin cycle enzyme activity; assay type: biochemical, Anabaena; conditions: 1 mM Ornidazole
# Method: as §1, §2
# Phosphglycerate kinase = molecular target: T2, Phosphglycerate kinase (Nostoc sp., UniProt Q8YPR1); experiment: Calvin cycle enzyme activity; assay type: biochemical, Anabaena; conditions: 1 mM Ornidazole
# T2 construct: endogenous in cells; host or cells: Anabaena PCC7120 extract
# T2 sequence (Q8YPR1 1-400): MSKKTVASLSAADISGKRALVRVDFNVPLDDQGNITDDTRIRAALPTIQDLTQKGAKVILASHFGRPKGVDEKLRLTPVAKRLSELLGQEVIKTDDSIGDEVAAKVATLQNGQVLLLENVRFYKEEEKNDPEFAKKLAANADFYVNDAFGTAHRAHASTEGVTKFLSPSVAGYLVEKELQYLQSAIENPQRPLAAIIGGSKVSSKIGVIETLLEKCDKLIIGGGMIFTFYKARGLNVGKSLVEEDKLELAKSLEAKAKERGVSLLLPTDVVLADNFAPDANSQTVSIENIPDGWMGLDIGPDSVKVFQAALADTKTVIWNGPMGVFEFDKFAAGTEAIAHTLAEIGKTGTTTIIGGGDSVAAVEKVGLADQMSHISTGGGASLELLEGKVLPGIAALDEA
# Method: as §1, §2
# Aldolase = experiment: Calvin cycle enzyme activity; assay type: biochemical, Anabaena; conditions: 1 mM Ornidazole
# Method: as §1, §2
# GAPDH = experiment: Calvin cycle enzyme activity; assay type: biochemical, Anabaena; conditions: 1 mM Ornidazole
# Method: as §1, §2
# [2] = molecular target: glyceraldehyde-3-phosphate dehydrogenase (GAPDH) (Homo sapiens, UniProt P04406); conditions: glycolytic GAPDH; cited from earlier work
# Dunaliella salina = experiment: Net O2 exchange (photosynthesis and respiration), O2 electrode; assay type: cell-based, Dunaliella salina (Chlorophyta)
# Method: The cyanobacterium Anabaena PCC7120 was grown in BG-11 medium as was previously described (Marcus Y, et al., 2005. J Bacteriol 187, 4222-4228). The green eukaryotic alga Dunaliella salina was grown on a medium described by Ben-Amotz and Avron (Ben-Amotz A and Avron M 1983. Plant Physiol 72, 593-597), under 20 μmol photons m^−2 sec^−1 at 30° C. The aquatic plant Lemna was collected from an open pond at the Botanical garden of Tel Aviv University. Seedlings of Avena sterilis were grown in pots in a greenhouse. The marine diatom Phaeodactylum tricornutum was grown as described in Haimovich-Dayan et al. (Haimovich-Dayan M. et al. 2012. New Phytol 195:177-185).
# (§3) The rate of net O2 exchange was determined using a Clark-type O2 electrode (Rank Brothers Ltd, UK). Fluorescent measurements (quantum yield, photochemical and non photochemical quenching) were determined using a modulated fluorometer (PAM, Walz, Germany) as described by Schreiber et al. (Schreiber U et al., 1986. fluorometer. Photosynth Res 10, 51-62) and Snir et al. (Snir A, et al., 2006. Photosynth Res 90, 233-242).
# The algae Anabaena PCC7120 (Cyanobacteria), Dunaliella salina (Chlorophyta) and Phaeodactylum tricornutum (Diatoms) were each grown in its suitable medium as described hereinabove towards the mid logarithmic phase. 1 mM Ornidazole was then added to the medium for 5 min, and respiration and photosynthesis were measured for at least 10 min.
# Lemna = experiment: PAM fluorescence parameters of aquatic plant; assay type: in vivo; conditions: 1 mM Ornidazole in growth medium; actinic light 210 μmol photons×m^−2×sec^−1
# Method: The fluorescence under dim (3 μmol photons×m^−2×sec^−1) and saturating (2000 μmol photons×m^−2×sec^−1, 0.8 sec) flash light (Fo and Fmax, respectively) of pre-darkened plants was determined in the presence or absence of 1 mM Ornidazole in the growth medium, using a PAM fluorimeter. Quantum yield and non-photochemical quenching (qN) were determined with saturating flashes under actinic light (210 μmol photons×m^−2×sec^−1).
# as §3
# The effect of Ornidazole on photosynthesis was further examined in the aquatic plant Lemna. Lemna plants were collected from a pond at the Botanical garden of Tel Aviv University and kept in the pond water as a growth medium. The fluorescence under dim (3 μmol photons m^−2 sec^−1) and saturating (2000 μmol photons m^−2 sec^−1, 0.8 sec) flash light (Fo and Fmax, respectively) of pre-darkened plants was determined in the presence or absence of 1 mM Ornidazole in the growth medium, using a PAM fluorimeter (H. Walz, Germany). […]
# [3] = test system: photosynthetic electron transport in Anabaena; experiment: Photosynthetic electron transport from H2O via reaction centers II and I and Methyl viologen to O2; assay type: cell-based, Anabaena PCC7120; conditions: water to Methyl viologen (1 mM) to oxygen; O2 electrode
# Method: The rates were determined for cells grown in a growth medium at 30° C. under 180 μmol photons×m^−2×sec^−1. The rate of electron transport from H2O via reaction centers II and I and Methyl viologen to O2 was determined in the presence of 1 mM methyl viologen using an O2 electrode. The effects of Ornidazole on the dark and light reactions of the photosynthetic apparatus were examined. Ornidazole had no effect on the photosynthetic electron transport in Anabaena measured from water as electron donor through the two reaction centers to Methyl viologen and finally to oxygen as an electron acceptor (FIG. 5).
# [4] = Dunaliella salina, 1 mM Ornidazole added for 5 min
# Chain of glyceraldehyde-3-phosphate dehydrogenase (GAPDH) (P04406 whole entry, species assumed): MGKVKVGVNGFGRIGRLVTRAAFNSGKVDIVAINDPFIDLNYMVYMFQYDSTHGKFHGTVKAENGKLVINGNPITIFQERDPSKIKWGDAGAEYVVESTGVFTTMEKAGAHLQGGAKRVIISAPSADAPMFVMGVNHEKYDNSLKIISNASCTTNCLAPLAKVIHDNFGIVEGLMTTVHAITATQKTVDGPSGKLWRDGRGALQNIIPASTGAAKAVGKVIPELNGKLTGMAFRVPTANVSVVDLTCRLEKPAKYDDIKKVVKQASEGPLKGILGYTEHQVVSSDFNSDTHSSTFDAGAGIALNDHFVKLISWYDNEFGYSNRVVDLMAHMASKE
smiles,measurement,setting,value
"Cc1ncc([N+](=O)[O-])n1CC(O)CCl (stereo not shown) [Ornidazole, 1-chloro-3-(2-methyl-5-nitro-1H-imidazol-1-yl)propan-2-ol]",Activity,[1],62 μmol × mg^−1chl × h^−1
same,Activity,Rubisco,74.6 μmol × mg^−1chl × h^−1
same,Activity,Fructose bisphosphatase,71 μmol × mg^−1chl × h^−1
same,Activity,Phosphoribulose kinase,66.7 μmol × mg^−1chl × h^−1
same,Activity,Phosphglycerate kinase,57 μmol × mg^−1chl × h^−1
same,Activity,Aldolase,120 μmol × mg^−1chl × h^−1
same,Activity,GAPDH,1.77 μmol × mg^−1chl × h^−1
same,inhibition of enzyme activity,GAPDH,98%-100
same,inhibition of enzyme activity,[2],inhibits the activity
same,Photosynthesis,Dunaliella salina; [4],17.88 μmol O2 mg^−1 chl h^−1
same,Respiration,Dunaliella salina; [4],−3.13 μmol O2 mg^−1 chl h^−1
same,inhibition at 1000 µM,"Dunaliella salina; Dunaliella salina, Dunaliella, 1 mM, read-out: inhibition of respiration rate",30 to 35%
same,effect on photosynthesis,"Dunaliella salina; Dunaliella, higher concentrations (than 1 mM) or longer incubation time",abolished photosynthesis
same,non-photochemical quenching,Lemna,increased
same,photosynthetic quantum yield,Lemna,decreased significantly
same,effect on photosynthetic electron transport,[3],no effect
